Results from article PMC9965906, “Discovery and Development Strategies for SARS-CoV-2 NSP3 Macrodomain Inhibitors” (Pathogens, 2023).
Values joined by “and” are separate entries in the source; they are usually repeats but may differ in a detail not shown here. Equal values may be shown once. Read-outs that look alike come from different tables or passages of the source.

Biological target: SARS-CoV-2 NSP3 Mac1 (Severe acute respiratory syndrome coronavirus 2, UniProt P0DTD1)
Assay: biochemical
Type: binding
Details: for inhibition at 125 µM: read-out: Inhibition at top concentration of 125 µM (%)
[1] = MIDAS hit compounds and analogues, 125 µM
[2] = MIDAS hit compounds and analogues, top concentration 125 µM, 8-point 1:1 dilution, duplicate
[3] = MIDAS hit compounds and analogues, top concentration 125 µM, 8-point 1:1 dilution, duplicate, read-out: IC50
[4] = FDA-approved compound library primary screen, 50 µM, single shot
[5] = BioAscent virtual screening hit compounds, duplicate
[6] = MIDAS compound library primary screen

Row | Molecule | inhibition at 125 µM [1] [%] | IC50 in µM [2] | further results
1 | CC(=O)N1CCN(C(=O)c2cc(-c3cccs3)nc3c2c(C)nn3C)CC1 [IAL-MD0054, CC(=O)N1CCN(CC1)C(=O)C=2C=C(N=C3N(C)N=C(C)C23)C4=CC=CS4] | 41.5 | Not measurable | 
2 | Cn1ccc2c(-c3ccc(Cn4ccnc4)cn3)ccnc21 [IAL-MD0145, CN1C=CC2=C(C3=NC=C(CN4C=CN=C4)C=C3)C=CN=C21] | 81.1 |  | IC50 [3]: 14 µM
3 | Cn1ccc2c(-c3ncccc3C(=O)N3CCCCC3)ccnc21 [IAL-MD0138, O=C(C1=CC=CN=C1C2=C3C(N(C)C=C3)=NC=C2)N4CCCCC4] | 79.4 |  | IC50 [3]: 36 µM
4 | CN1CCCN=C1/C=C/c1cccc(O)c1 [Oxantel pamoate, reference compound] |  |  | IC50: 11.7 µM and 12 µM; NSP3 Mac1 inhibition at 50 µM (%) [4]: 56%; inhibition at 50 µM [4]: 55.9%; Hill slope (FDA-approved hit compounds, confirmatory HTRF assays): 1.34
5 | COc1ccc(-c2cc(C(=O)Nc3cccnc3)c3ccccc3n2)cc1 [IAL-MD0100, COC=1C=CC(=CC1)C=2C=C(C(=O)NC=3C=CC=NC3)C=4C=CC=CC4N2] | 15.9 | Not measurable | 
6 | Nc1ccc2nc3c(=O)[nH]c(=O)[nH]c3nc2c1 [BCC0091906, Nc1ccc2nc3c(=O)[nH]c(=O)[nH]c3nc2c1] |  |  | inhibition at 25 µM [5]: 56.2%
7 | Cn1ccc2c(-c3ncccc3C(N)=O)ccnc21 [IAL-MD0136, O=C(N)C1=C(C2=C3C(N(C)C=C3)=NC=C2)N=CC=C1] | 49.7 | Not measurable | 
8 | CCOc1ccc2c(C)c(C(=O)N[C@@H]3CCNC[C@H]3O)oc2c1OCC [IAL-MD0127, O=C(C(O1)=C(C)C2=C1C(OCC)=C(OCC)C=C2)N[C@H]3[C@H](O)CNCC3.[H]Cl] |  |  | inhibition at 25 µM [6]: 40%; IC50 [3]: 38 µM; inhibition at 125 µM: 66.5%
9 | CC(C)n1ncc2c(C(=O)N3CCNC(=O)C3)cc(-c3ccc4c(c3)OCCO4)nc21 [IAL-MD0044, CC(C)N1N=CC=2C(=CC(=NC12)C=3C=CC=4OCCOC4C3)C(=O)N5CCNC(=O)C5] | 30.2 | Not measurable | 
10 | Chlorophyllide Cu complex Na salt [reference compound] |  |  | NSP3 Mac1 inhibition at 50 µM (%) [4]: 106.7%; NSP3 Mac1 inhibition at 50 µM (%) (FDA-approved compound library primary screen, 50 µM, single shot, listed as chlorophyllide–copper complex): 106%
11 | CC(C)n1ncc2c(C(=O)N(C)Cc3ccc4c(c3)OCO4)cc(-c3cccs3)nc21 [IAL-MD0065, CC(C)N1N=CC=2C(=CC(=NC12)C3=CC=CS3)C(=O)N(C)CC=4C=CC=5OCOC5C4] | 9.5 | Not measurable | 
12 | CC(C)n1ncc2c(C(=O)N3CCC(C)(O)CC3)cc(-c3cccs3)nc21 [IAL-MD0107, CC(C)N1N=CC=2C(=CC(=NC12)C3=CC=CS3)C(=O)N4CCC(C)(O)CC4] | 40.5 | Not measurable | 
13 | O=c1cc(-c2ccc(Cl)cc2)oc2cc(OCC(O)CS(=O)(=O)c3ccc(Cl)cc3)ccc12 (stereo not shown) [BCC0030992, O=c1cc(-c2ccc(Cl)cc2)oc2cc(OCC(O)CS(=O)(=O)c3ccc(Cl)cc3)ccc12] |  |  | inhibition at 25 µM [5]: 31.6%
14 | O=C(c1ccc(NCC2CC2)nc1)N1CCC(c2c[nH]c3ncccc23)CC1 [IAL-MD0110, O=C(N1CCC(CC1)C2=CNC=3N=CC=CC23)C=4C=CC(NCC5CC5)=NC4] | 7.8 | Not measurable | 
15 | C=CCCCCCCCCC(=O)[O-].C=CCCCCCCCCC(=O)[O-].[Zn+2] [Zinc undecylenate, reference compound] |  |  | NSP3 Mac1 inhibition at 50 µM (%) [4]: 68.0%
16 | COc1ccc(-c2cc(C(=O)O)c3cc(NC(C)=O)ccc3n2)cc1 [IAL-MD0031, COC=1C=CC(=CC1)C=2C=C(C(=O)O)C=3C=C(NC(=O)C)C=CC3N2] | 81.3 |  | inhibition at 25 µM [6]: 48%; IC50 [3]: 19 µM and 19.3 µM
17 | COc1ccc(-c2cc(C(=O)NCC(F)(F)F)c3ccccc3n2)cc1 [IAL-MD0099, COC=1C=CC(=CC1)C=2C=C(C(=O)NCC(F)(F)F)C=3C=CC=CC3N2] | 22.2 | Not measurable | 
18 | CC(=O)Nc1cccc(C(=O)N2CCC(c3c[nH]c4ncccc34)CC2)c1 [IAL-MD0078, CC(=O)NC=1C=CC=C(C1)C(=O)N2CCC(CC2)C3=CNC=4N=CC=CC34] | 10.5 | Not measurable | 
19 | Cn1ccc2c(-c3ccc(C(=O)N4CCOCC4)o3)ccnc21 [IAL-MD0131, O=C(C1=CC=C(C2=C3C(N(C)C=C3)=NC=C2)O1)N4CCOCC4] |  |  | Inhibition at top concentration of 125 µM (%) [1]: Not measurable due to compound precipitation; IC50 [3]: 4.9 µM
20 | CN(C)c1ccc(-c2ccc3ccccc3n2)cc1 [BCC0083752, CN(C)c1ccc(-c2ccc3ccccc3n2)cc1] |  |  | inhibition at 25 µM [5]: 46.8%
